Patent publication US7888393B2, “Transdermal compositions” (Microdermis Corporation, priority 2002, dated 2011)

Experiments:
[1] = pH of quaternary compounds, fatty acids and their reaction products in water (calibrated pH meter); type: physicochemical; conditions: for pH of product compound (reaction of quaternary compound with fatty acid): molar ratio DDAC to fatty acid 1:1, 70-75 °C, after 10 minutes
Method: Example 2 was repeated employing the fatty acids; Conjugated Linoleic Acid (CLA); eicosapentaenoic acid (EPA); and gamma linolenic acid (GLA), were all dissolved in water and the pH of the resulting solutions were measured with a calibrated pH meter.
Three solutions of DDAC (188.2 g) in distilled water (2,000 g) were contacted with masses of CLA, EPA and GLA, such that the molar ratio of DDAC to each of the aforementioned fatty acids was 1:1 at a temperature of 70° C. to 75° C. and after 10 minutes the pH of the reaction products of each of these products was measured.
Merquat 550 is a trademark owned by Calgon, Inc. its manufacturer, for a proprietary cationic polymer having a repeating unit molecular weight of 680 and an overall molecular weight of about 10,000. The pH of these first transdermal compositions were measured. […] Ten minutes after acid addition, the pH of the product composition were measured.

[2] = test system: open wounds; experiment: Seventh transdermal composition on open wounds of patients (healing, pain); type: in vivo
Description: As one skilled in the art can well appreciate there are endless numbers of combinations that can be made to create the desired skin effects. For example, when the quaternary ammonium salt, such as […] (DDAC), and the like, is present in a neutral pH in the first transdermal composition of the present invention described hereinabove, the formic acid from the bug bite is more effectively and more rapidly neutralized. On the other hand, when the quaternary ammonium salt, e.g., DDAC, is present in the seventh transdermal composition of the present invention, the healing rate on open wounds improves. However, when the quaternary ammonium salt, e.g., DDAC, is not substantially converted to the first reaction product, some of the patients, approximately 25% thereof, feel pain.

[3] = Stability of benzethonium chloride added to the transdermal mixtures; type: physicochemical
Method: When benzethonium chloride is added in therapeutically effective amounts to the mixtures described herein, it is stable if added at ambient temperature at a pH greater than 6. On the other hand, it is not stable if added at temperatures below the Freezing Zone and above ambient temperature at a pH of about 7.5 to about 8.

[4] = DDAC split between first reaction product (80%) and unreacted DDAC (20%)

Compound: CCCCCCCCCCCCCCCCCC[N+](C)(C)CCCCCCCCCCCCCCCCCC.[Cl-] [DDAC, dimethyl distearyl ammonium chloride]
- pH of quaternary compound in water ([1]; DDAC 188.2 g in distilled water 2,000 g): 5.38
- Patients who feel pain ([2]; DDAC not substantially converted to the first reaction product): approximately 25%
- Healing [2, 4]: rapid healing
- Pain [2, 4]: did not feel pain

Compound: CC/C=C\C/C=C\C/C=C\CCCCCCCC(=O)[O-].CCCCCCCCCCCCCCCCCC[N+](C)(C)CCCCCCCCCCCCCCCCCC [DDAL, Dimethyl Distearyl Ammonium Linolenate]
- pH of product compound (reaction of quaternary compound with fatty acid) [1]: 2.28

Compound: CC(C)(C)CC(C)(C)c1ccc(OCCOCC[N+](C)(C)Cc2ccccc2)cc1 [benzethonium chloride]
- Stability of benzethonium chloride in the mixture ([3]; added above the Freezing Zone, tip speed greater than Critical Shear Rate, pH about 7.5 to about 8): stable
- Stability of benzethonium chloride in the mixture ([3]; added at ambient temperature at pH greater than 6): stable
- Stability of benzethonium chloride in the mixture ([3]; added below the Freezing Zone and above ambient temperature at pH about 7.5 to about 8): not stable

Compound: Conjugated Linoleic Acid [CLA]
- pH of fatty acid dissolved in water ([1]; fatty acid alone in water): (4.00)

Compound: benzalkonium chloride [BAC]
- pH of Quat and Stearic Acid ([1]; 70-75 °C, stearic acid 40 g, ten minutes after acid addition): 2.40
- pH of quaternary compound ([1]; mixed with distilled water (2,000 g), before heating): 7.83

Compound: dimethyl distearyl ammonium stearate [DDAS]
- pH of product compound (reaction of quaternary compound with fatty acid) [1]: 2.38
